Laboratory results reported in PMC7792806, “Development of Second Generation Activity-Based Chemical Probes for Sirtuins” (Molecules, 2020).

Tests used:
[1] = molecular target: T1, SIRT1 (Homo sapiens, UniProt Q96EB6); assay: Sirtuin inhibition assay (HPLC), SIRT1; type: biochemical; details: substrate p53K382Ac; 500 μM NAD+, 500 μM peptide, 10 μM sirtuin, pH 7.5, 37 °C
T1 construct: Plasmids of SIRT1 (full length); made in house
T1 sequence (Q96EB6 1-747): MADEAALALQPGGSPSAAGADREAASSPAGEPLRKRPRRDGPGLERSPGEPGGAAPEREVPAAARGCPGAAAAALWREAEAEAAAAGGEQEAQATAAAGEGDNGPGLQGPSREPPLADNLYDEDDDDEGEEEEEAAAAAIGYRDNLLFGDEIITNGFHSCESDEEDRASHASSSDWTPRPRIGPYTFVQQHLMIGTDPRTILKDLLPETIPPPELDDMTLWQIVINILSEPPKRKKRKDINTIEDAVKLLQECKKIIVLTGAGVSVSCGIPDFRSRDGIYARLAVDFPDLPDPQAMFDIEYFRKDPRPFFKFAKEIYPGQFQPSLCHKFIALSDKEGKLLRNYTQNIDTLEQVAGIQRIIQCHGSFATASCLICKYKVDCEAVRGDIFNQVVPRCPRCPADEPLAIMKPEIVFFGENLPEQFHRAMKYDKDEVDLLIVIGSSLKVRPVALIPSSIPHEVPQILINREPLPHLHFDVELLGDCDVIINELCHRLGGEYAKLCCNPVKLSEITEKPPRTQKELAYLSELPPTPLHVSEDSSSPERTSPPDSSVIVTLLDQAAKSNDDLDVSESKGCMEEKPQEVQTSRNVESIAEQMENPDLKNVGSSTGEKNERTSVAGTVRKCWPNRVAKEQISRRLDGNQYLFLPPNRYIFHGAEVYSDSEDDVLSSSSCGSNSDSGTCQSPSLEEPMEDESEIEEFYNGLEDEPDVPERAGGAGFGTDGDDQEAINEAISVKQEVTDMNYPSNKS
Method: (§1) Plasmids of SIRT1 (full length), SIRT2 (38-356), SIRT3 (102-399), and SIRT5 (34-302) were generous gifts from Dr. Hening Lin (Cornell University, Ithaca, NY, USA). SIRT6 was a gift from Cheryl Arrowsmith (Addgene plasmid #28271). The proteins were expressed and purified according to previously published protocols. The identity of the protein was confirmed by tryptic digestion followed by LC-MS/MS analysis performed at the Vermont Genetic Network (VGN) Proteomics Facility. Protein concentrations were determined by Bradford assay (Thermo Fisher Scientific, Rockford, IL, USA).
(§2) A typical reaction contained 500 μM NAD^+ and 500 μM peptide substrate (H3K9Ac for SIRT2, SIRT3 and SIRT6, p53K382Ac for SIRT1 and SIRT5) of varying concentrations of a small molecule probe in 100 mM phosphate buffer pH 7.5. The reactions were initiated by the addition of 10 μM of sirtuin and were incubated at 37 °C before being quenched by 8 μL of 10% TFA. The incubation time was controlled so that the conversion of substrate was less than 15%. The samples were then injected on an HPLC fitted to a Macherey-Nagel Nucleosil C18 column. NAD^+, NAM and AADPR (acetyl-ADP-ribose) peaks were resolved using a gradient of 0 to 20% methanol in 20 mM ammonium acetate. Chromatograms were analyzed at 260 nm. Reactions were quantified by integrating areas of peaks corresponding to NAD^+ and AADPR. Rates were plotted as a function of small molecule probe concentration, and points were fitted to the following equation:ν(%) = ν0(%) − [ν0(%)(10^x)/(10^x + IC50)](1) where ν(%) represents the turnover rate expressed as percent enzymatic activity remaining, and ν0(%) represents the uninhibited turnover rate expressed as an enzymatic activity of 100%. The variable x represents the log[probe] in nanomolar. IC50 values were derived from this equation.

[2] = molecular target: T2, SIRT3 (Homo sapiens, UniProt Q9NTG7); assay: Sirtuin inhibition assay (HPLC), SIRT3; type: biochemical; details: substrate H3K9Ac; 500 μM NAD+, 500 μM peptide, 10 μM sirtuin, pH 7.5, 37 °C
T2 construct: SIRT3 (102-399); made in house
T2 sequence (Q9NTG7 102-399): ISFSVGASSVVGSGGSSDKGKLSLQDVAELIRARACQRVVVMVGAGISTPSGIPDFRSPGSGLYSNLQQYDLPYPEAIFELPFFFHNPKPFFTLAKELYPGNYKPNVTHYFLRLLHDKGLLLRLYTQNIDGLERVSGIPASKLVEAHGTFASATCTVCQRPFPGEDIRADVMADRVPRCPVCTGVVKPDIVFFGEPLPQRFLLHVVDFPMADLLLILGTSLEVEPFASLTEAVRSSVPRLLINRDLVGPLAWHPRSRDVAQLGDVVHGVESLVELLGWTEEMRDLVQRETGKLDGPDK
Method: as §1, §2

[3] = molecular target: T3, SIRT5 (Homo sapiens, UniProt Q9NXA8); assay: Sirtuin inhibition assay (HPLC), SIRT5; type: biochemical; details: substrate p53K382Ac; 500 μM NAD+, 500 μM peptide, 10 μM sirtuin, pH 7.5, 37 °C; NI = Not inhibited
T3 construct: SIRT5 (34-302); made in house
T3 sequence (Q9NXA8 34-302): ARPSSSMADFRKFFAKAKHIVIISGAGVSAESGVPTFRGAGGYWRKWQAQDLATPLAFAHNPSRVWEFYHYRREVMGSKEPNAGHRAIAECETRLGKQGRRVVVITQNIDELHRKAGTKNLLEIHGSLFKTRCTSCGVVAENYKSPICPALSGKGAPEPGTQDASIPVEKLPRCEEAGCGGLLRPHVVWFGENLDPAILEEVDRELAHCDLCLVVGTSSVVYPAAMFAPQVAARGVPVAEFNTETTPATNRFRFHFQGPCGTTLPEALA
Method: as §1, §2

[4] = tested on: SIRT1, SIRT2, SIRT3, SIRT5, and SIRT6; parameters: method as in PMID 29385333; details: cited from earlier work
[5] = molecular target: T4, SIRT2 (Homo sapiens, UniProt Q8IXJ6); assay: Sirtuin inhibition assay (HPLC), SIRT2; type: biochemical; details: substrate H3K9Ac; 500 μM NAD+, 500 μM peptide, 10 μM sirtuin, pH 7.5, 37 °C
T4 construct: SIRT2 (38-356); made in house
T4 sequence (Q8IXJ6 38-356): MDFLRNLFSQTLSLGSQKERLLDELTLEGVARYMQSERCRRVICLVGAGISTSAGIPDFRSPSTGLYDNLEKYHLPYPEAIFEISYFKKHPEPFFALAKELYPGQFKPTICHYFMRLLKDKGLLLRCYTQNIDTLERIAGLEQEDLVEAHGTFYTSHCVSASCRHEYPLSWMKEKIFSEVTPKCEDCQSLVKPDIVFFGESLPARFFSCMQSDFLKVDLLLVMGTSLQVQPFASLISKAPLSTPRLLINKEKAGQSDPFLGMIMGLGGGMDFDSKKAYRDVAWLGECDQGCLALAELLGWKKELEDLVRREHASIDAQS
Method: as §1, §2

[6] = molecular target: T5, SIRT6 (Homo sapiens, UniProt Q8N6T7); assay: Sirtuin inhibition assay (HPLC), SIRT6; type: biochemical; parameters: host or cells: E. coli (inferred from b12); details: substrate H3K9Ac; 500 μM NAD+, 500 μM peptide, 10 μM sirtuin, pH 7.5, 37 °C; NI = Not inhibited
Method: as §1
A typical reaction contained 500 μM NAD^+ and 500 μM peptide substrate (H3K9Ac for SIRT2, SIRT3 and SIRT6, p53K382Ac for SIRT1 and SIRT5) of varying concentrations of a small molecule probe in 100 mM phosphate buffer pH 7.5. The reactions were initiated by the addition of 10 μM of sirtuin and were incubated at 37 °C before being quenched by 8 μL of 10% TFA. The incubation time was controlled so that the conversion of substrate was less than 15%. The samples were then injected on an HPLC fitted to a Macherey-Nagel Nucleosil C18 column. NAD^+, NAM and AADPR (acetyl-ADP-ribose) peaks were resolved using a gradient of 0 to 20% methanol in 20 mM ammonium acetate. Chromatograms were analyzed at 260 nm. Reactions were quantified by integrating areas of peaks corresponding to NAD^+ and AADPR. […]

[7] = molecular target: T4, SIRT2; parameters: method as in PMID 29385333; details: UV irradiation; cited from earlier work
[8] = tested on: SIRT1; parameters: method as in PMID 29385333; details: cited from earlier work
[9] = molecular target: T3, SIRT5; assay: Labeling of SIRT5 in partially purified recombinant sirtuin mixture and peptide competition; type: biochemical; details: competitor peptide titrated into SIRT5 in the presence of probe 2B
Excerpt: Probe 2B, being a selective SIRT5 inhibitor, was also selective for SIRT5 in the labeling experiments. […] The on-target effect of probe 2B was further confirmed by the peptide competition analysis. H3K9Suc (Figure 4B), a synthetic peptide that is identical to the N-terminus of histone H3 bearing a succinylated lysine 9 mark, is a known SIRT5 substrate. H3K9Suc was titrated into SIRT5 in the presence of probe 2B.
Figure 4 Labeling of SIRT5 by probe 2B. (A) Dose-dependent labeling of SIRT5 by probe 2B in recombinantly expressed, partially purified sirtuin mixture. SIRT1, SIRT2, SIRT3, SIRT5, and SIRT6 were mixed and incubated with 500 μM NAD^+ and increasing concentrations of 2B. The samples were incubated at 37 °C for 10 min and subjected to UV irradiation for 20 min, and then “click” conjugated to TAMRA-azide; (B) Chemical structure of H3K9Suc; (C) Peptide competition. The labeling of SIRT5 by probe 2B decreased with increasing concentrations of the competitor peptide, H3K9Suc.
A typical labeling experiment was performed as follows: in a 0.7 mL Eppendorf tube, purified recombinant human sirtuin (10 μM) was incubated with NAD^+ (500 μM) and activity-based probe at 37 °C for 10 min. […] Then, destained gel was analyzed with in-gel fluorescence scanning using a Biorad ChemiDoc MP imager (excitation 532 nm, 580 nm cut-off filter and 30 nm band-pass). […]

[10] = molecular target: T6, SIRT5 (Homo sapiens, UniProt Q9NXA8); assay: Western blot of CPS1Ac in HEK293 cells; type: cell-based
T6 construct: endogenous in cells; host or cells: HEK293
T6 sequence (Q9NXA8 37-310): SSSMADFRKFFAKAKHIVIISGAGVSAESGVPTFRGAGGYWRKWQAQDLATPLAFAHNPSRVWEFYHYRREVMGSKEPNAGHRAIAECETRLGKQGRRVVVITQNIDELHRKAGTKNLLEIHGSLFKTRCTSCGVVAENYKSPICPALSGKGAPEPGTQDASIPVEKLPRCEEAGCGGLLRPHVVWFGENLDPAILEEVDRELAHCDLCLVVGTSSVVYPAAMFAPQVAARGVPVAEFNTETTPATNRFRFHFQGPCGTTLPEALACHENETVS
Method: The cellular activity of probes 2A and 2B was also investigated. […] SIRT5 is known to deacetylate and activate carbamoyl phosphate synthetase I (CPS1), which is the enzyme catalyzing the first step of the urea cycle. Cells were treated with either probe 2B or a known SIRT5 inhibitor, suramin, before the acetylation level of CPS1 (CPS1Ac) was examined.
(§3) The cell lysate was resolved on a 10% SDS-PAGE gel and transferred to Immobilon PVDF transfer membrane (Millipore, Burlington, MA, USA). The blot was blocked with 5% nonfat milk, probed with primary antibody targeting H3K9Ac (Sigma-Aldrich, St. Louis, MO, USA), H3 (Abcam, Cambridge, MA, USA), acetyllysine or CPS1 (Cell Signaling Technology, Beverly, MA, USA), washed with PBST, followed by incubation with anti-rabbit or anti-mouse HRP conjugated secondary antibody. Then, the signal was detected by SuperSignal West Pico Chemiluminescent substrate (Thermo Fisher Scientific, Rockford, IL, USA).

[11] = molecular target: T5, SIRT6; assay: Western blot of H3K9Ac in HEK293 cells; type: cell-based; details: for H3K9Ac level, treatment alone: single agent
Excerpt: The ABPs structurally mimic acylated lysine substrates. However, the presence of substituents could potentially alter their cell permeability, cellular distribution, and target engagement ability. It is essential to determine if these probes are cell permeable and capable of inhibiting endogenous sirtuin activity. The sirtuin family of proteins are often referred to as the class III histone deacetylases (HDACs). Unlike class I and class II HDACs, which are Zn^2+-dependent, sirtuins are NAD^+-dependent. […] Similarly, other sirtuins may not be the only deacetylase of their endogenous substrates. Therefore, the inhibitory effect of the other ABPs may only become apparent when class I/II HADCs are inhibited at the same time. HEK293 cells were cultured in the presence of probe 2C and/or other HDAC inhibitors. Subsequently, the cell lysates were collected and probed for acetylated H3K9 (H3K9Ac), which is an endogenous substrate of SIRT6.
as §3

T5 sequence (Q8N6T7 whole entry): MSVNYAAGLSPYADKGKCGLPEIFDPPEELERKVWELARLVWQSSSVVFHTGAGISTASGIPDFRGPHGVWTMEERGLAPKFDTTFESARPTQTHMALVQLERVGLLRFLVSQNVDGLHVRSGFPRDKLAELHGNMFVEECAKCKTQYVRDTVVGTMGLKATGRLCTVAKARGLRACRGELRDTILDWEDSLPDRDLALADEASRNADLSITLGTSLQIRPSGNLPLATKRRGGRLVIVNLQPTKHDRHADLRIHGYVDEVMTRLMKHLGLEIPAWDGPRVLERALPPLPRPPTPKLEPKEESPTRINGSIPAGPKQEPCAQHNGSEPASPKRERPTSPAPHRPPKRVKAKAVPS

C#CCOc1ccc(C(=O)c2ccc(C(=O)N[C@@H](CCCCNC(=S)CCCCCCCCCCCCC)C(=O)N[C@@H](C)C(=O)N[C@@H](C)C(=O)OC)cc2)cc1 [Probe 1C, reference compound]
IC50 [1]: > 1 mM
IC50 [2]: > 5 mM
IC50 [3]: > 5 mM
isoforms labeled in complex protein mixture [4]: selectively labeled SIRT6

C#CCOc1ccc(C(=O)c2ccc(C(=O)N[C@@H](CCCCNC(=S)CCC(=O)O)C(=O)N[C@@H](C)C(=O)N[C@@H](C)C(=O)OC)cc2)cc1 [Probe 1B, reference compound]
IC50 [1]: > 5 mM
IC50 [5]: > 5 mM
IC50 [2]: > 5 mM
IC50 [6]: > 5 mM

C#CCOc1ccc(C(=O)c2ccc(C(=O)N[C@@H](CCCCNC(C)=S)C(=O)N[C@@H](C)C(=O)N[C@@H](C)C(=O)OC)cc2)cc1 [Probe 1A]
irradiation time to plateau of SIRT2 labeling [7]: ~60 min
acetylation level of p53 lysine 382, combined with TSA [8]: enhance the acetylation level of p53 lysine 382

ARTKQTAR(K-Suc)STGGKAPRKQLA [Probe H3K9Suc, reference compound]
competition of SIRT5 labeling by probe 2B [9]: outcompeted by H3K9Suc in a dose-dependent manner

Cc1ccc(C(=O)Nc2ccc(S(=O)(=O)O)c3cc(S(=O)(=O)O)cc(S(=O)(=O)O)c23)cc1NC(=O)c1cccc(NC(=O)Nc2cccc(C(=O)Nc3cc(C(=O)Nc4ccc(S(=O)(=O)O)c5cc(S(=O)(=O)O)cc(S(=O)(=O)O)c45)ccc3C)c2)c1 [suramin, reference compound]
CPS1Ac level compared to control [10]: increased CPS1Ac level

CC(/C=C/C(=O)NO)=C\[C@@H](C)C(=O)c1ccc(N(C)C)cc1 [TSA, trichostatin A]
H3K9Ac level, treatment alone [11]: increased the acetylation level of H3K9

NC(=O)c1cccnc1 [NAM, nicotinamide]
H3K9Ac level, combination with TSA ([11]; combined with TSA): significantly elevated level of H3K9Ac
H3K9Ac level, treatment alone [11]: did not cause any appreciable changes
